Measurements published in patent US5859257A, “Isoxazole compounds as cyclooxygenase inhibitors” (G. D. Searle & Co., priority 1996, dated 1999).

Tests used:
COX-2 = assay: Evaluation of COX-2 activity in vitro (PGE2 ELISA, recombinant enzyme); format: biochemical, human or murine; settings: arachidonic acid 10 μM, pH 8.0, pre-incubation 10-20 minutes
Description: The COX-2 inhibition activity of the compounds of this invention illustrated in the Examples was determined by the following methods.
(§1) a. Preparation of recombinant COX baculoviruses
(§2) Recombinant COX-1 and COX-2 were prepared as scribed by Gierse et al, [J. Biochem., 305, 479-84 (1995)]. […] Recombinant baculoviruses were isolated by transfecting 4 μg of baculovirus transfer vector DNA into SF9 insect cells (2×10^8) along with 200 ng of linearized baculovirus plasmid DNA by the calcium phosphate method. See M. D. Summers and G. E. Smith, A Manual of Methods for Baculovirus Vectors and Insect Cell Culture Procedures, Texas Agric. Exp. Station Bull. 1555 (1987). Recombinant viruses were purified by three rounds of plaque purification and high titer (10^7 -10^8 pfu/mL) stocks of virus were prepared. For large scale production, SF9 insect cells were infected in 10 liter fermentors (0.5×10^6 /mL) with the recombinant baculovirus stock such that the multiplicity of infection was 0.1. After 72 hours the cells were centrifuged and the cell pellet homogenized in Tris/Sucrose (50 mM: 25%, pH 8.0) containing 1% 3-[(3-cholamidopropyl)dimethylammonio]-1-propanesulfonate (CHAPS). The nomogenate was centrifuged at 10,000×G for 30 minutes, and the resultant supernatant was stored at -80° C. before being assayed for COX activity.
(§3) COX activity was assayed as PGE2 formed/μg protein/time using an ELISA to detect the prostaglandin released. CHAPS-solubilized insect cell membranes containing the appropriate COX enzyme were incubated in a potassium phosphate buffer (50 mM, pH 8.0) containing epinephrine, phenol, and heme with the addition of arachidonic acid (10 μM). […] Any reaction between the arachidonic acid and the enzyme was stopped after ten minutes at 37° C./room temperature by transferring 40 μl of reaction mix into 160 μl ELISA buffer and 25 μM indomethacin. The PGE2 formed was measured by standard ELISA technology (Cayman Chemical).

COX-1 = assay: Evaluation of COX-1 activity in vitro (PGE2 ELISA, recombinant enzyme); format: biochemical, human or murine; settings: arachidonic acid 10 μM, pH 8.0, pre-incubation 10-20 minutes
Description: as §1, §2, §3

| Structure (SMILES) | IC50 (COX-2) [µM] | IC50 (COX-1) [µM] |
| --- | --- | --- |
| Cc1noc(-c2ccc(S(C)(=O)=O)cc2)c1-c1ccccc1 [Example 22, 3-Methyl-5-(4-methylsulfonylphenyl)-4-phenylisoxazole] | 5.3 | > 100 |
| COc1ccc(-c2noc(C)c2-c2ccc(S(N)(=O)=O)cc2)cc1F [Example 4, 4-[3-(3-Fluoro-4-methoxyphenyl)-5-methylisoxazol-4-yl]benzenesulfonamide] | 3 | > 100 |
| NS(=O)(=O)c1ccc(-c2c(-c3ccccc3)noc2COc2ccc(C(=O)O)cc2)cc1 [Example 51, 4-[[4-[4-(Aminosulfonyl)phenyl]-3-phenylisoxazol-5-yl]methoxy]benzoic acid] | 19 | > 100 |
| COc1ccc(-c2noc(C(F)F)c2-c2ccc(S(N)(=O)=O)cc2)cc1F [Example 44, 4-[5-Difluoromethyl-3-(3-fluoro-4-methoxyphenyl)isoxazol-4-yl]benzenesulfonamide] | 1.7 | > 100 |
| Cc1ccc(-c2noc(C)c2-c2ccc(S(N)(=O)=O)cc2)cc1F [Example 4c, 4-[3-(3-fluoro-4-methylphenyl)-5-methyl-isoxazol-4-yl]benzenesulfonamide] | < 0.1 | 66.5 |
| CS(=O)(=O)c1ccc(-c2c(-c3ccccc3)noc2CO)cc1 [Example 61, 5-Hydroxymethyl-4-(4-methylsulfonyl)phenyl-3-phenyl-isoxazole] | 0.2 | > 100 |
| NS(=O)(=O)c1ccc(-c2c(-c3ccccc3)noc2CCl)cc1 [Example 1k, 4-[5-chloromethyl-3-phenylisoxazol-4-yl]benzenesulfonamide] | < 0.1 | 50.7 |
| CCc1noc(-c2ccc(F)cc2)c1-c1ccc(S(N)(=O)=O)cc1 [Example 30, 4-[3-Ethyl-5-(4-fluorophenyl)isoxazol-4-yl]benzenesulfonamide] | < 0.1 | 41 |
| Cc1onc(-c2cccc(Cl)c2)c1-c1ccc(S(N)(=O)=O)cc1 [Example 48, 4-[3-(3-Chlorophenyl)-5-methylisoxazol-4-yl]benzenesulfonamide] | 0.3 | 93 |
| Cc1onc(-c2ccc(Cl)c(Cl)c2C(=O)O)c1-c1ccc(S(N)(=O)=O)cc1 [Example 68, 6-[4-[4-(aminosulfonyl)phenyl]-5-methylisoxazol-3-yl]-2,3-dichlorobenzoic acid] | 0.4 | > 100 |
| NS(=O)(=O)c1ccc(-c2c(-c3ccccc3)noc2CC(=O)O)cc1 [Example 9, [4-[4-(Aminosulfonyl)phenyl]-3-phenylisoxazol-5-yl]acetic acid] | – | > 100 |
| CCc1noc(-c2cccc(F)c2)c1-c1ccc(S(N)(=O)=O)cc1 [Example 31, 4-[3-Ethyl-5-(3-fluorophenyl)isoxazol-4-yl]benzenesulfonamide] | 1.3 | > 100 |
| Cc1ccc(-c2noc(C(F)F)c2-c2ccc(S(N)(=O)=O)cc2)cc1 [Example 46, 4-[5-Difluoromethyl-3-(4-methylphenyl)isoxazol-4-yl]benzenesulfonamide] | 0.5 | 100 |
| NS(=O)(=O)c1ccc(-c2c(-c3cccc(F)c3)noc2CC(=O)O)cc1 [Example 55, [4-(4-Aminosulfonylphenyl)-3-(3-fluorophenyl)isoxazol-5-yl]acetic acid] | < 0.1 | > 100 |
| Cc1onc(-c2ccccc2)c1-c1ccc(S(C)(=O)=O)cc1 [Example 5, 5-Methyl-4-[4-(methylsulfonyl)phenyl]-3-phenylisoxazole] | 4 | > 100 |
| NS(=O)(=O)c1ccc(-c2c(-c3ccccc3)noc2CC(=O)C(F)(F)F)cc1 [Example 52, 4-[3-Phenyl-5-(3,3,3-trifluoro-2-oxopropyl)isoxazol-4-yl]benzenesulfonamide] | 0.2 | 93 |
| NS(=O)(=O)c1ccc(-c2c(-c3ccccc3)noc2Cc2ccc(Cl)cc2)cc1 [Example 1i, 4-[5-(4-chlorophenyl)methyl-3-phenylisoxazol-4-yl]benzenesulfonamide] | < 0.1 | 8.6 |
| CCc1noc(-c2ccc(C)cc2)c1-c1ccc(S(N)(=O)=O)cc1 [Example 17, 4-[3-Ethyl-5-(4-methylphenyl)isoxazol-4-yl]benzenesulfonamide] | 2.1 | > 100 |
| NS(=O)(=O)c1ccc(-c2c(CC(=O)O)noc2-c2ccccc2)cc1 [Example 26, 4-(4-Aminosulfonylphenyl)-5-phenyl-isoxazole-3-acetic acid] | 69.5 | > 100 |
| Cc1onc(-c2ccc(F)cc2)c1-c1ccc(S(N)(=O)=O)cc1 [Example 4b, 4-[3-(4-fluorophenyl)-5-methyl-isoxazol-4-yl]benzenesulfonamide] | < 0.1 | > 100 |

| Structure (SMILES) | IC50 (COX-2) [µM] | IC50 (COX-1) [µM] |
| --- | --- | --- |
| Cc1ccc(-c2onc(C)c2-c2ccc(S(N)(=O)=O)cc2)cc1 [Example 19, 4-[3-Methyl-5-(4-methylphenyl)isoxazol-4-yl]benzenesulfonamide] | 8.7 | > 100 |
| COC(=O)c1ccc(OCc2onc(-c3ccccc3)c2-c2ccc(S(N)(=O)=O)cc2)cc1 [Example 50, Methyl 4-[[4-[4-(aminosulfonyl)phenyl]-3-phenylisoxazol-5-yl]methoxy]benzoate] | < 0.1 | > 100 |
| Cc1onc(-c2ccc(S(N)(=O)=O)cc2)c1-c1ccccc1 [Example 41, 4-[5-Methyl-4-phenylisoxazol-3-yl]benzenesulfonamide] | 57.5 | 81 |
| Cc1noc(-c2ccc(Cl)cc2)c1-c1ccc(S(N)(=O)=O)cc1 [Example 20, 4-[5-(4-chlorophenyl)-3-methylisoxazol-4-yl]benzenesulfonamide] | 4.7 | > 100 |
| Cc1onc(-c2ccc(Br)cc2)c1-c1ccc(S(N)(=O)=O)cc1 [Example 43, 4-[3-(4-Bromophenyl)-5-methyl-isoxazol-4-yl]benzenesulfonamide] | 0.6 | > 100 |
| CC(C)(C)Cc1onc(-c2ccccc2)c1-c1ccc(S(N)(=O)=O)cc1 [Example 1g, 4-[5-neopentyl-3-phenylisoxazol-4-yl]benzenesulfonamide] | < 0.1 | > 100 |
| NS(=O)(=O)c1ccc(-c2c(-c3ccccc3)noc2CCCC(=O)O)cc1 [Example 36] | 1.5 | > 100 |
| CCc1noc(-c2ccccc2C)c1-c1ccc(S(N)(=O)=O)cc1 [Example 54, 4-[3-Ethyl-5-(2-methylphenyl)isoxazol-4-yl]benzenesulfonamide] | 1.8 | > 100 |
| Cc1onc(-c2ccccc2)c1-c1ccc(S(=O)(=O)O)cc1 [Example 1l, 4-[5-methyl-3-phenylisoxazol-4-yl]benzenesulfonic acid] | 1.5 | > 100 |
| CCc1onc(-c2ccccc2)c1-c1ccc(S(N)(=O)=O)cc1 [Example 1a, 4-[5-ethyl-3-phenylisoxazol-4-yl]benzenesulfonamide] | < 0.1 | 17.4 |
| NS(=O)(=O)c1ccc(-c2c(-c3ccccc3)noc2CC2CCCCC2)cc1 [Example 1h, 4-[5-cyclohexylmethyl-3-phenylisoxazol-4-yl]benzenesulfonamide] | < 0.1 | 4.7 |
| CCc1noc(-c2ccccc2F)c1-c1ccc(S(N)(=O)=O)cc1 [Example 33, 4-[3-Ethyl-5-(2-fluorophenyl)isoxazol-4-yl]benzenesulfonamide] | < 0.1 | 26 |
| Cc1onc(-c2ccncc2)c1-c1ccc(S(N)(=O)=O)cc1 [Example 4f, 4-[5-methyl-3-(4-pyridyl)-isoxazol-4-yl]benzenesulfonamide] | > 100 | > 100 |
| CCc1noc(-c2ccccc2)c1-c1ccc(S(C)(=O)=O)cc1 [Example 29, 3-Ethyl-4-(4-methylsulfonylphenyl)-5-phenylisoxazole] | – | > 100 |
| CCc1noc(-c2cccc(C)c2)c1-c1ccc(S(N)(=O)=O)cc1 [Example 32, 4-[3-Ethyl-5-(3-methylphenyl)isoxazol-4-yl]benzenesulfonamide] | – | 76 |
| NS(=O)(=O)c1ccc(-c2c(-c3ccccc3)noc2C2CCCCC2)cc1 [Example 1f, 4-[5-cyclohexyl-3-phenylisoxazol-4-yl]benzenesulfonamide] | – | 54 |
| Cc1noc(-c2ccccc2)c1-c1ccc(S(N)(=O)=O)cc1 [Example 13, 4-[3-Methyl-5-phenylisoxazol-4-yl]benzenesulfonamide] | – | 6.4 |
| Cc1onc(-c2ccc(F)c(F)c2)c1-c1ccc(S(N)(=O)=O)cc1 [Example 49, 4-[3-(3,4-Difluorophenyl)-5-methylisoxazol-4-yl]benzenesulfonamide] | – | > 100 |
| NS(=O)(=O)c1ccc(-c2c(-c3ccccc3)noc2C(=O)O)cc1 [Example 11, [4-[4-(Aminosulfonyl)phenyl]-3-phenylisoxazol-5-yl]carboxylic acid] | 35 | – |
